Experimental data as given in patent publication US12030904B2 (priority 2020, dated 2024).
Where two headings read alike, the source gives them in different places.

What was measured:
[1] = test system: SARS-CoV-2; assay: microbe, parasite or virus in culture; assay type: cell-based
[2] = test system: Recombinant Respiratory Syncytial virus strain A2 containing the firefly luciferase reporter (RSV-Fluc); assay: microbe, parasite or virus in culture; assay type: cell-based
[3] = test system: MT4; assay: MT4 cytotoxicity (CC50); conditions: read-out: MT4 CC50; Table 2a
[4] = A549 cytotoxicity analysis (CellTiter-Glo); assay type: cell-based; conditions: human; A549 cells, 48 hours; Table 1
Protocol: The cytotoxicity of compounds was determined in A549 cells in the following manner. Compounds (40 nL) were spotted onto 384-well Grenier plates prior to seeding 5000 A549 cells/well in a volume of 40 μL culture medium. The plates were incubated at 37° C. for 48 hours with 5% CO2. On day 2, 40 μL of CellTiter-Glo (Promega) was added and mixed 5 times. Plates were read for luminescence on an Envision (PerkinElmer) and the CC50 (compound concentration for reducing 50% of luminescence signal as a measure of cell viability) were calculated using a nonlinear regression model (four parameters). Two experiments were performed with technical duplicates.

[5] = MT4 cytotoxicity (CC50); conditions: human, MT4 cells, MT4 CC50, Table 1a
[6] = Severe acute respiratory syndrome coronavirus 2, 48 h, read-out: SARS-CoV-2 EC50
[7] = human respiratory syncytial virus, NHBE, 72 h, read-out: RSV-Fluc EC50 (NHBE), NHBE cells, three days, Table 1

Molecule `CCCCCCCCCCCCCCCCCCOC[C@H](COP(=O)(O)OC[C@H]1O[C@@](C#N)(c2ccc3c(N)ncnn23)[C@H](O)[C@@H]1O)OC(C)c1ccccc1` (single isomer, unassigned) [Example 28] has an EC50 ([1]; read-out: SARS EC50) of 2300 nM, an EC50 ([2]; read-out: RSV EC50, Table 2a) of 75 nM and an EC50 ([2]; read-out: RSV-Fluc EC50 (NHBE), NHBE cells, three days, Table 2) of 70 nM. It also gave a CC50 [3] of 1060 nM.

`CCCCCCCCCCCCCCCCCCOC[C@H](COP(=O)(O)OC[C@H]1O[C@@](C#N)(c2ccc3c(N)ncnn23)[C@H](O)[C@@H]1O)OCc1ccc(OC)cc1` [Example 10, ((2R,3S,4R,5R)-5-(4-aminopyrrolo[2,1-f][1,2,4]triazin-7-yl)-5-cyano-3,4-dihydroxytetrahydrofuran-2-yl)methyl ((R)-2-((4-methoxybenzyl)oxy)-3-(octadecyloxy)propyl) hydrogen phosphate] gave an EC50 [1, 6] of 300 nM, an EC50 [2, 7] of 60 nM and a CC50 at 48 h [4] of 20000 nM. For the same molecule, the CC50 [5] was 3430 nM.

With `CCCCCCCCCCCCCCCCCCOC[C@H](COP(=O)(O)OC[C@H]1O[C@@](C#N)(c2ccc3c(N)ncnn23)[C@H](O)[C@@H]1O)OCC1CCCCC1` [Example 3, ((2R,3S,4R,5R)-5-(4-aminopyrrolo[2,1-f][1,2,4]triazin-7-yl)-5-cyano-3,4-dihydroxytetrahydrofuran-2-yl)methyl ((R)-2-(cyclohexylmethoxy)-3-(octadecyloxy)propyl) hydrogen phosphate] the EC50 [1, 6] was 340 nM, the EC50 [2, 7] was 120 nM and the CC50 at 48 h [4] was 19000 nM. It also gave a CC50 [5] of 14000 nM.

Work on `CCCCCCCCCCCCCCCCOC[C@H](COP(=O)(O)OC[C@H]1O[C@@](C#N)(c2ccc3c(N)ncnn23)[C@H](O)[C@@H]1O)OCc1ccccc1` [Example 5, ((2R,3S,4R,5R)-5-(4-aminopyrrolo[2,1-f][1,2,4]triazin-7-yl)-5-cyano-3,4-dihydroxytetrahydrofuran-2-yl)methyl ((R)-2-(benzyloxy)-3-(hexadecyloxy)propyl) hydrogen phosphate] yielded an EC50 [1, 6] of 480 nM, an EC50 [2, 7] of 50 nM and a CC50 at 48 h [4] of 19000 nM. The CC50 [5] was 6290 nM.

With `CCCCCCCCCCCCCCCCCCOC[C@H](COP(=O)(O)OC[C@H]1O[C@@](C#N)(c2ccc3c(N)ncnn23)[C@H](OC(=O)C(C)C)[C@@H]1OC(=O)C(C)C)OCc1ccccc1` [Example 13, (2R,3R,4R,5R)-2-(4-aminopyrrolo[2,1-f][1,2,4]triazin-7-yl)-5-(((((R)-2-(benzyloxy)-3-(octadecyloxy)propoxy)(hydroxy)phosphoryl)oxy)methyl)-2-cyanotetrahydrofuran-3,4-diyl bis(2-methylpropanoate)] the EC50 [1, 6] was > 10000 nM, the EC50 [2, 7] was 2200 nM and the CC50 at 48 h [4] was 15000 nM. It also gave a CC50 [5] of 32800 nM.

Molecule `CCCCCCCCCCCCCCCCCCOC[C@H](COP(=O)(O)OC[C@H]1O[C@@](C#N)(c2ccc3c(N)ncnn23)[C@H](O)[C@@H]1O)OCc1ccc(F)c(F)c1` [Example 14, ((2R,3S,4R,5R)-5-(4-aminopyrrolo[2,1-f][1,2,4]triazin-7-yl)-5-cyano-3,4-dihydroxytetrahydrofuran-2-yl)methyl ((R)-2-((3,4-difluorobenzyl)oxy)-3-(octadecyloxy)propyl) hydrogen phosphate] has an EC50 [1, 6] of 320 nM, an EC50 [2, 7] of 90 nM and a CC50 at 48 h [4] of 13000 nM. For the same molecule, the CC50 [5] was 7190 nM.

In the case of `CCCCCCCCCCCCCCCCCCOC[C@H](COP(=O)(O)OC[C@H]1O[C@@](C#N)(c2ccc3c(N)ncnn23)[C@H](O)[C@@H]1O)OCc1cc(F)cc(F)c1` [Example 15, [(2R,3S,4R,5R)-5-(4-aminopyrrolo[2,1-f][1,2,4]triazin-7-yl)-5-cyano-3,4-dihydroxy-tetrahydrofuran-2-yl]methyl [(2R)-2-[(3,5-difluorophenyl)methoxy]-3-octadecoxy-propyl] hydrogen phosphate], the EC50 [1, 6] is reported as 260 nM, the EC50 [2, 7] is reported as 80 nM and the CC50 at 48 h [4] is reported as 13000 nM. The CC50 [5] was 3310 nM.
